Square brackets hold non-standard residues; d marks the D form. Peptide text beside a SMILES is read from it. * marks the point of attachment. dBpa = N[C@H](Cc1ccc(C(=O)c2ccccc2)cc1)C(=O)O; Boc = CC(C)(C)OC(=O)*; Aib = CC(C)(N)C(=O)O; Bn = c1ccc(C*)cc1
Test system: γ-secretase (production of total Aβ)
Assay: Inhibition of total Aβ production in APP-transfected cells (sandwich ELISA)
Type: cell-based
Conditions: cell-based assay, CHO cells stably transfected with human APP; read-out: IC50 (concentration of compound that reduced production of total Aβ by 50%)
Description: Based on the helical model for the APP transmembrane domain, we have identified short peptides designed to adopt a similar conformation that block γ-secretase activity. Judicious replacement of selected residues of short APP-derived peptides with 2-aminoisobutyric acid (Aib), a known helix-inducing amino acid (19, 20), provided peptides that, in principle, mimic the γ-secretase cleavage site on one face of the helix, with Aib residues on the other face. We have identified Aib-containing peptides (see below) that inhibit Aβ production in APP-transfected cells with IC50's as low as 2 μM. […] We also discovered that an Aib decapeptide that is not based on the APP sequence (VIIb in ref 19: […] The crystal structure of this compound has been determined, and the peptide is fully helical (19). […] These peptides likewise assume a helical conformation, although of the opposite sense (left-handed instead of right-handed). Thus, the invention advantageously provides helical peptidomimetics having improved metabolic stability. […] IC50 is the concentration of compound that reduced production of total Aβ by 50% in a cell-based assay using CHO cells stably transfected with human APP. […] The 15 D-peptides, varied in first position, are tested for their ability to inhibit total Aβ production in APP-transfected cell lines using a sensitive, quantitative, and convenient sandwich ELISA as we have previously described (12, 13). The compound best able to reduce Aβ production is then used as a starting point for the synthesis of a second round of peptide synthesis, 15 compounds each defined at the second position and containing the optimal first residue. In this iterative fashion, the optimal residue for each position is determined.

IC50 [µM]	SMILES
25	CC[C@H](C)[C@H](NC(=O)C(C)(C)NC(=O)[C@@H](NC(=O)[C@H](C)NC(=O)OC(C)(C)C)[C@@H](C)OCc1ccccc1)C(=O)N[C@H](C(=O)NC(C)(C)C(=O)OC)C(C)C [Compound 1, Boc-Ala-Thr(OBz)-Aib-Ile-Val-Aib-OMe] (Boc-AT(Bn)[Aib]IV[Aib]-OMe)
15	CC[C@H](C)[C@H](NC(=O)OC(C)(C)C)C(=O)N[C@@H](C)C(=O)N[C@H](C(=O)NC(C)(C)C(=O)N[C@H](C(=O)N[C@H](C(=O)NC(C)(C)C(=O)OC)C(C)C)[C@@H](C)CC)[C@@H](C)OCc1ccccc1 [Compound 2, Boc-Ile-Ala-Thr(OBz)-Aib-Ile-Val-Aib-OMe] (Boc-IAT(Bn)[Aib]IV[Aib]-OMe)
10	CC[C@H](C)[C@H](NC(=O)C(C)(C)NC(=O)OC(C)(C)C)C(=O)N[C@@H](C)C(=O)N[C@H](C(=O)NC(C)(C)C(=O)N[C@H](C(=O)N[C@H](C(=O)NC(C)(C)C(=O)OC)C(C)C)[C@@H](C)CC)[C@@H](C)OCc1ccccc1 [Compound 3, Boc-Aib-Ile-Ala-Thr(OBz)-Aib-Ile-Val-Aib-OMe] (Boc-[Aib]IAT(Bn)[Aib]IV[Aib]-OMe)
2	CC[C@H](C)[C@H](NC(=O)C(C)(C)NC(=O)[C@@H](NC(=O)OC(C)(C)C)C(C)C)C(=O)N[C@@H](C)C(=O)N[C@H](C(=O)NC(C)(C)C(=O)N[C@H](C(=O)N[C@H](C(=O)NC(C)(C)C(=O)OC)C(C)C)[C@@H](C)CC)[C@@H](C)OCc1ccccc1 [Compound 4, Boc-Val-Aib-Ile-Ala-Thr(OBz)-Aib-Ile-Val-Aib-OMe] (Boc-V[Aib]IAT(Bn)[Aib]IV[Aib]-OMe)
5	CC[C@H](C)[C@H](NC(=O)C(C)(C)NC(=O)[C@@H](NC(=O)CNC(=O)OC(C)(C)C)C(C)C)C(=O)N[C@@H](C)C(=O)N[C@H](C(=O)NC(C)(C)C(=O)N[C@H](C(=O)N[C@H](C(=O)NC(C)(C)C(=O)OC)C(C)C)[C@@H](C)CC)[C@@H](C)OCc1ccccc1 [Compound 5, Boc-Gly-Val-Aib-Ile-Ala-Thr(OBz)-Aib-Ile-Val-Aib-OMe] (Boc-GV[Aib]IAT(Bn)[Aib]IV[Aib]-OMe)
12	CC[C@H](C)[C@H](NC(=O)[C@@H](NC(=O)OC(C)(C)C)C(C)C)C(=O)NC(C)(C)C(=O)N[C@H](C(=O)N[C@H](C(=O)NC(C)(C)C(=O)OC)C(C)C)[C@@H](C)OCc1ccccc1 [Compound 6, Boc-Val-Ile-Aib-Thr(OBz)-Val-Aib-OMe] (Boc-VI[Aib]T(Bn)V[Aib]-OMe)
6	CC[C@H](C)[C@H](NC(=O)[C@@H](NC(=O)[C@@H](NC(=O)OC(C)(C)C)C(C)C)C(C)C)C(=O)NC(C)(C)C(=O)N[C@H](C(=O)N[C@H](C(=O)NC(C)(C)C(=O)OC)C(C)C)[C@@H](C)OCc1ccccc1 [Compound 7, Boc-Val-Val-Ile-Aib-Thr(OBz)-Val-Aib-OMe] (Boc-VVI[Aib]T(Bn)V[Aib]-OMe)
6	CC[C@H](C)[C@H](NC(=O)[C@@H](NC(=O)[C@@H](NC(=O)C(C)(C)NC(=O)OC(C)(C)C)C(C)C)C(C)C)C(=O)NC(C)(C)C(=O)N[C@H](C(=O)N[C@H](C(=O)NC(C)(C)C(=O)OC)C(C)C)[C@@H](C)OCc1ccccc1 [Compound 8, Boc-Aib-Val-Val-Ile-Aib-Thr(OBz)-Val-Aib-OMe] (Boc-[Aib]VVI[Aib]T(Bn)V[Aib]-OMe)
3	CC[C@H](C)[C@H](NC(=O)[C@@H](NC(=O)[C@@H](NC(=O)C(C)(C)NC(=O)CNC(=O)OC(C)(C)C)C(C)C)C(C)C)C(=O)NC(C)(C)C(=O)N[C@H](C(=O)N[C@H](C(=O)NC(C)(C)C(=O)OC)C(C)C)[C@@H](C)OCc1ccccc1 [Compound 9, Boc-Gly-Aib-Val-Val-Ile-Aib-Thr(OBz)-Val-Aib-OMe] (Boc-G[Aib]VVI[Aib]T(Bn)V[Aib]-OMe)
3	CC[C@H](C)[C@H](NC(=O)[C@@H](NC(=O)[C@@H](NC(=O)C(C)(C)NC(=O)CNC(=O)[C@@H](NC(=O)OC(C)(C)C)C(C)C)C(C)C)C(C)C)C(=O)NC(C)(C)C(=O)N[C@H](C(=O)N[C@H](C(=O)NC(C)(C)C(=O)OC)C(C)C)[C@@H](C)OCc1ccccc1 [Compound 10, Boc-Val-Gly-Aib-Val-Val-Ile-Aib-Thr(OBz)-Val-Aib-OMe] (Boc-VG[Aib]VVI[Aib]T(Bn)V[Aib]-OMe)
2	COC(=O)C(C)(C)NC(=O)[C@H](CC(C)C)NC(=O)[C@H](C)NC(=O)C(C)(C)NC(=O)[C@H](CC(C)C)NC(=O)[C@H](C)NC(=O)C(C)(C)NC(=O)[C@H](CC(C)C)NC(=O)[C@H](C)NC(=O)C(C)(C)NC(=O)OC(C)(C)C [VIIb, Boc-Aib-Ala-Leu-Aib-Ala-Leu-Aib-Ala-Leu-Aib-O-methylester, reference compound] (Boc-[Aib]AL[Aib]AL[Aib]AL[Aib]-OMe)

Same assay, conditions: same cell-based assay, CHO cells stably transfected with human APP; read-out: IC50 (reduction of total Aβ production)

SMILES	IC50 [µM]
COC(=O)C(C)(C)NC(=O)[C@H](NC(=O)[C@H](NC(=O)C(C)(C)NC(=O)[C@@H](Cc1ccc(C(=O)c2ccccc2)cc1)NC(=O)[C@H](NC(=O)[C@H](NC(=O)C(C)(C)NC(=O)CNC(=O)[C@H](NC(=O)OC(C)(C)C)C(C)C)C(C)C)C(C)C)[C@H](C)OCc1ccccc1)C(C)C [SEQ ID NO:11, Boc-D-Val-Gly-Aib-D-Val-D-Val-D-BPA-Aib-D-Thr(OBz)-D-Val-Aib-OMe] (Boc-[dV]G[Aib][dV][dV][dBpa][Aib][dT](Bn)[dV][Aib]-OMe)	0.1

Reference: US6846805B2, “Helical peptidomimetics” (The Brigham and Women's Hospital, Inc., priority 2002, dated 2005)
